Test results as given in ChEMBL document CHEMBL2396590, “Inhibition of HIV-1 integrase dimerization and activity with crosslinked interfacial peptides” (Bioorg Med Chem, 2013).
The source made the active and inactive calls. The calls are words filed in the database; no cut-off is given here. Starred links: 1 amine or outer side, 2 acyl side, 3 side chain; linkers in the order of their positions; H or OH if unused. Non-standard residues stand in square brackets, D forms with d. Residues, ends and D or L forms follow the SMILES beside them. NH(CH2)8CO = O=C(CCCCCCCCN[*:1])[*:2]; X2 = O=C(C1CCCC(CN[*:1])C1)[*:2]; X1 = O=C(CN1CCN([*:1])CC1)[*:2]; X3 = O=C(CC1CCN([*:1])CC1)[*:2]; X4 = O=C(CCC(=O)[*:2])CN[*:1]; 12Ado = NCCCCCCCCCCCC(=O)O; AEEA = NCCOCCOCC(=O)O; Aoc = NCCCCCCCC(=O)O; Ahp = NCCCCCCC(=O)O

Experiments:
[1] = target: Human immunodeficiency virus type 1 integrase (Human immunodeficiency virus 1, UniProt Q7ZJM1, C280S/F185K); experiment: Inhibition of HIV1 3'-processing activity of integrase F185K/C280S double mutant expressed in Escherichia coli BL21 (DE3)
[2] = system: Human immunodeficiency virus type 1 integrase (Human immunodeficiency virus 1), Q7ZJM1 [F185K,C280S]; experiment: Inhibition of HIV1 integrase F185K/C280S double mutant dimerization expressed in Escherichia coli BL21 (DE3) at 110 uM after 1 hr by PAGE analysis

Compound	IC50 [1]	inhibition [2]
CC[C@H](C)[C@H](NC(=O)[C@H](CC(=O)O)NC(=O)[C@@H](NC(=O)[C@H](C)NC(=O)[C@@H](NC(=O)[C@@H](NC(=O)[C@H](CC(=O)O)NC(=O)[C@@H](NC(=O)[C@@H](NC(=O)[C@H](CCCNC(=N)N)NC(=O)[C@H](CCC(=O)O)NC(=O)CNC(=O)[C@H](C)NC(=O)CCCCCCCCCCCNC(=O)[C@H](CCCNC(=N)N)NC(=O)[C@H](CCCCN)NC(=O)[C@H](Cc1ccccc1)NC(=O)[C@H](CC(N)=O)NC(=O)[C@H](Cc1cnc[nH]1)NC(=O)[C@@H](NC(=O)[C@H](Cc1ccccc1)NC(=O)[C@@H](NC(=O)[C@H](C)NC(=O)[C@H](CCSC)NC(=O)[C@H](CCC(N)=O)NC(=O)[C@@H](NC(=O)[C@H](C)NC(=O)[C@@H](NC(=O)[C@H](CCCCN)NC(=O)[C@H](CC(C)C)NC(=O)[C@@H](N)Cc1cnc[nH]1)[C@@H](C)O)C(C)C)C(C)C)[C@@H](C)CC)[C@@H](C)CC)C(C)C)[C@@H](C)CC)[C@@H](C)CC)[C@@H](C)O)C(=O)N[C@@H](CCC(N)=O)C(N)=O (H-HLKTAVQMAVFIHNFKR[12Ado]AGERIVDIIATDIQ-NH2)	1300 nM	Active
CC[C@H](C)[C@H](NC(=O)[C@H](CC(=O)O)NC(=O)[C@@H](NC(=O)[C@H](C)NC(=O)[C@@H](NC(=O)[C@@H](NC(=O)[C@H](CC(=O)O)NC(=O)[C@@H](NC(=O)[C@@H](NC(=O)[C@H](CCCNC(=N)N)NC(=O)[C@H](CCC(=O)O)NC(=O)CNC(=O)[C@H](C)NC(=O)CCCCCCNC(=O)[C@H](CCCNC(=N)N)NC(=O)[C@H](CCCCN)NC(=O)[C@H](Cc1ccccc1)NC(=O)[C@H](CC(N)=O)NC(=O)[C@H](Cc1cnc[nH]1)NC(=O)[C@@H](NC(=O)[C@H](Cc1ccccc1)NC(=O)[C@@H](NC(=O)[C@H](C)NC(=O)[C@H](CCSC)NC(=O)[C@H](CCC(N)=O)NC(=O)[C@@H](NC(=O)[C@H](C)NC(=O)[C@@H](NC(=O)[C@H](CCCCN)NC(=O)[C@H](CC(C)C)NC(=O)[C@@H](N)Cc1cnc[nH]1)[C@@H](C)O)C(C)C)C(C)C)[C@@H](C)CC)[C@@H](C)CC)C(C)C)[C@@H](C)CC)[C@@H](C)CC)[C@@H](C)O)C(=O)N[C@@H](CCC(N)=O)C(N)=O (H-HLKTAVQMAVFIHNFKR[Ahp]AGERIVDIIATDIQ-NH2)	910 nM	Active
CC[C@H](C)[C@H](NC(=O)[C@H](CC(=O)O)NC(=O)[C@@H](NC(=O)[C@H](C)NC(=O)[C@@H](NC(=O)[C@@H](NC(=O)[C@H](CC(=O)O)NC(=O)[C@@H](NC(=O)[C@@H](NC(=O)[C@H](CCCNC(=N)N)NC(=O)[C@H](CCC(=O)O)NC(=O)CNC(=O)[C@H](C)NC(=O)C1CCCC(CNC(=O)[C@H](CCCNC(=N)N)NC(=O)[C@H](CCCCN)NC(=O)[C@H](Cc2ccccc2)NC(=O)[C@H](CC(N)=O)NC(=O)[C@H](Cc2cnc[nH]2)NC(=O)[C@@H](NC(=O)[C@H](Cc2ccccc2)NC(=O)[C@@H](NC(=O)[C@H](C)NC(=O)[C@H](CCSC)NC(=O)[C@H](CCC(N)=O)NC(=O)[C@@H](NC(=O)[C@H](C)NC(=O)[C@@H](NC(=O)[C@H](CCCCN)NC(=O)[C@H](CC(C)C)NC(=O)[C@@H](N)Cc2cnc[nH]2)[C@@H](C)O)C(C)C)C(C)C)[C@@H](C)CC)C1)[C@@H](C)CC)C(C)C)[C@@H](C)CC)[C@@H](C)CC)[C@@H](C)O)C(=O)N[C@@H](CCC(N)=O)C(N)=O (stereo not given in full) (H-HLKTAVQMAVFIHNFKR[X2]AGERIVDIIATDIQ-NH2)	1000 nM	Active
CC[C@H](C)[C@H](NC(=O)[C@H](CC(=O)O)NC(=O)[C@@H](NC(=O)[C@H](C)NC(=O)[C@@H](NC(=O)[C@@H](NC(=O)[C@H](CC(=O)O)NC(=O)[C@@H](NC(=O)[C@@H](NC(=O)[C@H](CCCNC(=N)N)NC(=O)[C@H](CCC(=O)O)NC(=O)CNC(=O)[C@H](C)NC(=O)CCC(=O)CNC(=O)[C@H](CCCNC(=N)N)NC(=O)[C@H](CCCCN)NC(=O)[C@H](Cc1ccccc1)NC(=O)[C@H](CC(N)=O)NC(=O)[C@H](Cc1cnc[nH]1)NC(=O)[C@@H](NC(=O)[C@H](Cc1ccccc1)NC(=O)[C@@H](NC(=O)[C@H](C)NC(=O)[C@H](CCSC)NC(=O)[C@H](CCC(N)=O)NC(=O)[C@@H](NC(=O)[C@H](C)NC(=O)[C@@H](NC(=O)[C@H](CCCCN)NC(=O)[C@H](CC(C)C)NC(=O)[C@@H](N)Cc1cnc[nH]1)[C@@H](C)O)C(C)C)C(C)C)[C@@H](C)CC)[C@@H](C)CC)C(C)C)[C@@H](C)CC)[C@@H](C)CC)[C@@H](C)O)C(=O)N[C@@H](CCC(N)=O)C(N)=O (H-HLKTAVQMAVFIHNFKR[X4]AGERIVDIIATDIQ-NH2)	430 nM	Active
CC[C@H](C)[C@H](NC(=O)[C@H](CC(=O)O)NC(=O)[C@@H](NC(=O)[C@H](C)NC(=O)[C@@H](NC(=O)[C@@H](NC(=O)[C@H](CC(=O)O)NC(=O)[C@@H](NC(=O)[C@@H](NC(=O)[C@H](CCCNC(=N)N)NC(=O)[C@H](CCC(=O)O)NC(=O)CNC(=O)[C@H](C)NC(=O)CC1CCN(C(=O)[C@H](CCCNC(=N)N)NC(=O)[C@H](CCCCN)NC(=O)[C@H](Cc2ccccc2)NC(=O)[C@H](CC(N)=O)NC(=O)[C@H](Cc2cnc[nH]2)NC(=O)[C@@H](NC(=O)[C@H](Cc2ccccc2)NC(=O)[C@@H](NC(=O)[C@H](C)NC(=O)[C@H](CCSC)NC(=O)[C@H](CCC(N)=O)NC(=O)[C@@H](NC(=O)[C@H](C)NC(=O)[C@@H](NC(=O)[C@H](CCCCN)NC(=O)[C@H](CC(C)C)NC(=O)[C@@H](N)Cc2cnc[nH]2)[C@@H](C)O)C(C)C)C(C)C)[C@@H](C)CC)CC1)[C@@H](C)CC)C(C)C)[C@@H](C)CC)[C@@H](C)CC)[C@@H](C)O)C(=O)N[C@@H](CCC(N)=O)C(N)=O (H-HLKTAVQMAVFIHNFKR[X3]AGERIVDIIATDIQ-NH2)	570 nM	Active
CC[C@H](C)[C@H](NC(=O)[C@H](CC(=O)O)NC(=O)[C@@H](NC(=O)[C@H](C)NC(=O)[C@@H](NC(=O)[C@@H](NC(=O)[C@H](CC(=O)O)NC(=O)[C@@H](NC(=O)[C@@H](NC(=O)[C@H](CCCNC(=N)N)NC(=O)[C@H](CCC(=O)O)NC(=O)CNC(=O)[C@H](C)NC(=O)CCCCCCCCNC(=O)[C@H](CCCNC(=N)N)NC(=O)[C@H](CCCCN)NC(=O)[C@H](Cc1ccccc1)NC(=O)[C@H](CC(N)=O)NC(=O)[C@H](Cc1cnc[nH]1)NC(=O)[C@@H](NC(=O)[C@H](Cc1ccccc1)NC(=O)[C@@H](NC(=O)[C@H](C)NC(=O)[C@H](CCSC)NC(=O)[C@H](CCC(N)=O)NC(=O)[C@@H](NC(=O)[C@H](C)NC(=O)[C@@H](NC(=O)[C@H](CCCCN)NC(=O)[C@H](CC(C)C)NC(=O)[C@@H](N)Cc1cnc[nH]1)[C@@H](C)O)C(C)C)C(C)C)[C@@H](C)CC)[C@@H](C)CC)C(C)C)[C@@H](C)CC)[C@@H](C)CC)[C@@H](C)O)C(=O)N[C@@H](CCC(N)=O)C(N)=O (H-HLKTAVQMAVFIHNFKR[NH(CH2)8CO]AGERIVDIIATDIQ-NH2)	720 nM	Active
CC[C@H](C)[C@H](NC(=O)[C@H](CC(=O)O)NC(=O)[C@@H](NC(=O)[C@H](C)NC(=O)[C@@H](NC(=O)[C@@H](NC(=O)[C@H](CC(=O)O)NC(=O)[C@@H](NC(=O)[C@@H](NC(=O)[C@H](CCCNC(=N)N)NC(=O)[C@H](CCC(=O)O)NC(=O)CNC(=O)[C@H](C)NC(=O)CCCCCCCNC(=O)[C@H](CCCNC(=N)N)NC(=O)[C@H](CCCCN)NC(=O)[C@H](Cc1ccccc1)NC(=O)[C@H](CC(N)=O)NC(=O)[C@H](Cc1cnc[nH]1)NC(=O)[C@@H](NC(=O)[C@H](Cc1ccccc1)NC(=O)[C@@H](NC(=O)[C@H](C)NC(=O)[C@H](CCSC)NC(=O)[C@H](CCC(N)=O)NC(=O)[C@@H](NC(=O)[C@H](C)NC(=O)[C@@H](NC(=O)[C@H](CCCCN)NC(=O)[C@H](CC(C)C)NC(=O)[C@@H](N)Cc1cnc[nH]1)[C@@H](C)O)C(C)C)C(C)C)[C@@H](C)CC)[C@@H](C)CC)C(C)C)[C@@H](C)CC)[C@@H](C)CC)[C@@H](C)O)C(=O)N[C@@H](CCC(N)=O)C(N)=O (H-HLKTAVQMAVFIHNFKR[Aoc]AGERIVDIIATDIQ-NH2)	680 nM	Active
CC[C@H](C)[C@H](NC(=O)[C@H](CC(=O)O)NC(=O)[C@@H](NC(=O)[C@H](C)NC(=O)[C@@H](NC(=O)[C@@H](NC(=O)[C@H](CC(=O)O)NC(=O)[C@@H](NC(=O)[C@@H](NC(=O)[C@H](CCCNC(=N)N)NC(=O)[C@H](CCC(=O)O)NC(=O)CNC(=O)[C@H](C)NC(=O)COCCOCCNC(=O)[C@H](CCCNC(=N)N)NC(=O)[C@H](CCCCN)NC(=O)[C@H](Cc1ccccc1)NC(=O)[C@H](CC(N)=O)NC(=O)[C@H](Cc1cnc[nH]1)NC(=O)[C@@H](NC(=O)[C@H](Cc1ccccc1)NC(=O)[C@@H](NC(=O)[C@H](C)NC(=O)[C@H](CCSC)NC(=O)[C@H](CCC(N)=O)NC(=O)[C@@H](NC(=O)[C@H](C)NC(=O)[C@@H](NC(=O)[C@H](CCCCN)NC(=O)[C@H](CC(C)C)NC(=O)[C@@H](N)Cc1cnc[nH]1)[C@@H](C)O)C(C)C)C(C)C)[C@@H](C)CC)[C@@H](C)CC)C(C)C)[C@@H](C)CC)[C@@H](C)CC)[C@@H](C)O)C(=O)N[C@@H](CCC(N)=O)C(N)=O (H-HLKTAVQMAVFIHNFKR[AEEA]AGERIVDIIATDIQ-NH2)	1070 nM	Active
H-HLKTAVQMAVFIHNFKRKGGIGGYSAGERIVDIIATDIQ-NH2	1700 nM	Active
CC[C@H](C)[C@H](NC(=O)[C@H](CC(=O)O)NC(=O)[C@@H](NC(=O)[C@H](C)NC(=O)[C@@H](NC(=O)[C@@H](NC(=O)[C@H](CC(=O)O)NC(=O)[C@@H](NC(=O)[C@@H](NC(=O)[C@H](CCCNC(=N)N)NC(=O)[C@H](CCC(=O)O)NC(=O)CNC(=O)[C@H](C)NC(=O)CN1CCN(C(=O)[C@H](CCCNC(=N)N)NC(=O)[C@H](CCCCN)NC(=O)[C@H](Cc2ccccc2)NC(=O)[C@H](CC(N)=O)NC(=O)[C@H](Cc2cnc[nH]2)NC(=O)[C@@H](NC(=O)[C@H](Cc2ccccc2)NC(=O)[C@@H](NC(=O)[C@H](C)NC(=O)[C@H](CCSC)NC(=O)[C@H](CCC(N)=O)NC(=O)[C@@H](NC(=O)[C@H](C)NC(=O)[C@@H](NC(=O)[C@H](CCCCN)NC(=O)[C@H](CC(C)C)NC(=O)[C@@H](N)Cc2cnc[nH]2)[C@@H](C)O)C(C)C)C(C)C)[C@@H](C)CC)CC1)[C@@H](C)CC)C(C)C)[C@@H](C)CC)[C@@H](C)CC)[C@@H](C)O)C(=O)N[C@@H](CCC(N)=O)C(N)=O (H-HLKTAVQMAVFIHNFKR[X1]AGERIVDIIATDIQ-NH2)	460 nM	Active
